From patent US20090311203A1, “GEM-DIFLUORIDE C-GLYCOPEPTIDE COMPOUNDS, THEIR PREPARATION AND USE PARTICULARLY FOR PRESERVATION OF BIOLOGICAL MATERIALS” (INSTITUT NATIONAL DES SCIENCES APPLIQUEES DE ROUEN (INSA), priority 2006, published 2009)
Values joined by “and” are separate entries in the source; they are usually repeats but may differ in a detail not shown here. Equal values may be shown once.

How the values were obtained:
Format in all cases: cell-based
[1] = system: primary adult skin fibroblasts; assay: Protection of fibroblasts against UV-C exposure; conditions: 37° C., 8.6 mM; for cell protection against UV (in words): UV-C 2 hours; for live cells still observed: UV-C (254 nm) for 2 hours
Description: In the following experiments, the studies were conducted at 37° C. on adult primary skin fibroblasts. The cells were exposed to UV-C irradiation for 2 hours in the presence of AAGP derivatives.

[2] = system: primary adult skin fibroblasts; assay: Preservation of fibroblasts at low temperature (−3° C.); conditions: 8.6 mM
Description: The purpose of the following experiment is to test the preservation activity of AAGP 11 compounds at low temperatures.
The cells are thus incubated at −3° C. in the presence of the compound AAGP 11.

HELA cells = assay: Survival of HELA cells subjected to UVC; conditions: exposed to UVC; low concentrations; FIGS. 37, 38 and 39
Description: FIGS. 37, 38 and 39 are representations of the effects of the various derivatives on the survival of HELA cells subjected to UVC.
Studies were conducted on HELA cells, exposed to UVC, in the presence of the various synthesised compounds, at low concentrations.

| SMILES | cell protection against UV (in words) [1] | survival of HELA cells compared to the control (in words) (HELA cells) | other results |
| --- | --- | --- | --- |
| COC(=O)[C@H](C)NC(=O)[C@H](CCCCNC(=O)C(F)(F)[C@]1(O)O[C@H](COCc2ccccc2)[C@H](OCc2ccccc2)[C@H](OCc2ccccc2)[C@H]1OCc1ccccc1)NC(=O)OCc1ccccc1 [AAGP-15] | excellent protective properties |  |  |
| C[C@H](NC(=O)[C@@H](N)CCCCNC(=O)C(F)(F)[C@]1(O)O[C@H](CO)[C@H](O)[C@H](O)[C@H]1O)C(=O)O [Compound 11] | high level of cell | Very satisfactory results | survival ([2]; after 6 days at −3° C., serum-free medium with 0.5 mM EDTA, control cells all dead): approximately 100% survival; cell preservation activity at low temperature (in words) ([2]; −3° C., listed as AAGP-11): very high preservation activity and 11 displays a very high; live cells still observed ([1]; after 72 hours, serum-free medium with 0.5 mM EDTA, all control cells dead): 92% live cells are still; live cells still observed ([1]; after 4 days, almost all dead in the control): After 4 days, 60% live |
| C[C@H](NC(=O)[C@@H](N)CCCCNC(=O)C(F)(F)[C@]1(O)O[C@H](CO)[C@H](O)[C@H](O)[C@H]1O)C(=O)O [Compound 12] |  | inferior results compared to the control |  |
| C[C@H](NC(=O)[C@@H](N)CCCNC(=O)C(F)(F)[C@]1(O)O[C@H](CO)[C@H](O)[C@H](O)[C@H]1O)C(=O)O [Compound 26] |  | inferior results compared to the control |  |
| N[C@@H](CCCCNC(=O)C(F)(F)[C@]1(O)O[C@H](CO)[C@H](O)[C@H](O)[C@H]1O)C(=O)NCC(=O)O [Compound 30] |  | improve the survival of these cells compared to the control |  |
